Key:
OVCAR-8 = experiment: NCI60 antitumor screening; type: cell-based, human; conditions: Homo sapiens; 10 μM single dose; OVCAR-8 (ovarian cancer); read-out: growth inhibition percent (GI%)
SK-OV-3 = experiment: NCI60 antitumor screening; type: cell-based, human; conditions: Homo sapiens; 10 μM single dose; SK-OV-3 (ovarian cancer); read-out: growth inhibition percent (GI%)
SF-539 = experiment: NCI60 antitumor screening; type: cell-based, human; conditions: Homo sapiens; 10 μM single dose; SF-539 (CNS cancer); read-out: growth inhibition percent (GI%)
OVCAR-4 = experiment: NCI60 antitumor screening; type: cell-based, human; conditions: Homo sapiens; 10 μM single dose; OVCAR-4 (ovarian cancer); read-out: growth inhibition percent (GI%)
UACC-257 = experiment: NCI60 antitumor screening; type: cell-based, human; conditions: Homo sapiens; 10 μM single dose; UACC-257 (melanoma); read-out: growth inhibition percent (GI%)
K-562 = experiment: NCI60 antitumor screening; type: cell-based, human; conditions: Homo sapiens; 10 μM single dose; (leukaemia); read-out: growth inhibition percent (GI%)
KM12 = experiment: NCI60 antitumor screening; type: cell-based, human; conditions: Homo sapiens; 10 μM single dose; KM12 (colon cancer); read-out: growth inhibition percent (GI%)
HOP-92 = experiment: NCI60 antitumor screening; type: cell-based, human; conditions: Homo sapiens; 10 μM single dose; HOP-92 (non-small cell lung cancer); read-out: growth inhibition percent (GI%)
A549/ATCC = experiment: NCI60 antitumor screening; type: cell-based, human; conditions: Homo sapiens; 10 μM single dose; A549/ATCC (non-small cell lung cancer); read-out: growth inhibition percent (GI%)
SK-MEL-5 = experiment: NCI60 antitumor screening; type: cell-based, human; conditions: Homo sapiens; 10 μM single dose; SK-MEL-5 (melanoma); read-out: growth inhibition percent (GI%)
SW-620 = experiment: NCI60 antitumor screening; type: cell-based, human; conditions: Homo sapiens; 10 μM single dose; SW-620 (colon cancer); read-out: growth inhibition percent (GI%)
NCI-H226 = experiment: NCI60 antitumor screening; type: cell-based, human; conditions: Homo sapiens; 10 μM single dose; NCI-H226 (non-small cell lung cancer); read-out: growth inhibition percent (GI%)
CAKI-1 = experiment: NCI60 antitumor screening; type: cell-based, human; conditions: Homo sapiens; 10 μM single dose; CAKI-1 (renal cancer); read-out: growth inhibition percent (GI%)
MDA-MB-435 = experiment: NCI60 antitumor screening; type: cell-based, human; conditions: Homo sapiens; 10 μM single dose; MDA-MB-435 (melanoma); read-out: growth inhibition percent (GI%)
NCI-H322M = experiment: NCI60 antitumor screening; type: cell-based, human; conditions: Homo sapiens; 10 μM single dose; NCI-H322M (non-small cell lung cancer); read-out: growth inhibition percent (GI%)
OVCAR-5 = experiment: NCI60 antitumor screening; type: cell-based, human; conditions: Homo sapiens; 10 μM single dose; OVCAR-5 (ovarian cancer); read-out: growth inhibition percent (GI%)
SF-295 = experiment: NCI60 antitumor screening; type: cell-based, human; conditions: Homo sapiens; 10 μM single dose; SF-295 (CNS cancer); read-out: growth inhibition percent (GI%)
HS 578T = experiment: NCI60 antitumor screening; type: cell-based, human; conditions: Homo sapiens; 10 μM single dose; HS 578T (breast cancer); read-out: growth inhibition percent (GI%)
SF-268 = experiment: NCI60 antitumor screening; type: cell-based, human; conditions: Homo sapiens; 10 μM single dose; SF-268 (CNS cancer); read-out: growth inhibition percent (GI%)
UACC-62 = experiment: NCI60 antitumor screening; type: cell-based, human; conditions: Homo sapiens; 10 μM single dose; UACC-62 (melanoma); read-out: growth inhibition percent (GI%)
HCT-15 = experiment: NCI60 antitumor screening; type: cell-based, human; conditions: Homo sapiens; 10 μM single dose; HCT-15 (colon cancer); read-out: growth inhibition percent (GI%)
MCF7 = experiment: NCI60 antitumor screening; type: cell-based, human; conditions: Homo sapiens; 10 μM single dose; MCF7 (breast cancer); read-out: growth inhibition percent (GI%)
SK-MEL-2 = experiment: NCI60 antitumor screening; type: cell-based, human; conditions: Homo sapiens; 10 μM single dose; SK-MEL-2 (melanoma); read-out: growth inhibition percent (GI%)
MOLT-4 = experiment: NCI60 antitumor screening; type: cell-based, human; conditions: Homo sapiens; 10 μM single dose; MOLT-4 (leukaemia); read-out: growth inhibition percent (GI%)
MDA-MB-468 = experiment: NCI60 antitumor screening; type: cell-based, human; conditions: Homo sapiens; 10 μM single dose; MDA-MB-468 (breast cancer); read-out: growth inhibition percent (GI%)
MALME-3M = experiment: NCI60 antitumor screening; type: cell-based, human; conditions: Homo sapiens; 10 μM single dose; MALME-3M (melanoma); read-out: growth inhibition percent (GI%)
MDA-MB-231/ATCC = experiment: NCI60 antitumor screening; type: cell-based, human; conditions: Homo sapiens; 10 μM single dose; MDA-MB-231/ATCC (breast cancer); read-out: growth inhibition percent (GI%)
SR = experiment: NCI60 antitumor screening; type: cell-based, human; conditions: Homo sapiens; 10 μM single dose; SR (leukaemia); read-out: growth inhibition percent (GI%)

Row | Structure (SMILES) | inhibition at 10 µM (OVCAR-8) [%] | inhibition at 10 µM (SK-OV-3) [%] | inhibition at 10 µM (SF-539) [%] | inhibition at 10 µM (OVCAR-4) [%] | inhibition at 10 µM (UACC-257) [%] | inhibition at 10 µM (K-562) [%] | inhibition at 10 µM (KM12) [%] | inhibition at 10 µM (HOP-92) [%] | inhibition at 10 µM (A549/ATCC) [%] | inhibition at 10 µM (SK-MEL-5) [%] | inhibition at 10 µM (SW-620) [%] | inhibition at 10 µM (NCI-H226) [%] | inhibition at 10 µM (CAKI-1) [%] | inhibition at 10 µM (MDA-MB-435) [%] | inhibition at 10 µM (NCI-H322M) [%] | inhibition at 10 µM (OVCAR-5) [%] | inhibition at 10 µM (SF-295) [%] | inhibition at 10 µM (HS 578T) [%] | inhibition at 10 µM (SF-268) [%] | inhibition at 10 µM (UACC-62) [%] | further results
1 | Cc1ccc(CSc2nc(-c3ccc(F)cc3)c(C#N)c(N3CCN(c4ccccc4)CC3)n2)cc1 [4p, 4-(4-Fluorophenyl)-2-((4-methylbenzyl)thio)-6-(4-phenylpiperazin-1-yl) pyrimidine-5-carbonitrile] | < 10 | < 10 | < 10 | 10.6 | 14.1 | 18 | < 10 | < 10 | 11.6 | 13.7 | < 10 | < 10 | 16.6 | 10.3 | < 10 | < 10 | < 10 | < 10 | 15.3 | 29.7 | inhibition at 10 µM (HCT-15): 13.9%; inhibition at 10 µM (MCF7): 21.3%; inhibition at 10 µM (SK-MEL-2): 15.1%; inhibition at 10 µM (MOLT-4): < 10%; inhibition at 10 µM (MDA-MB-468): 13.6%; inhibition at 10 µM (MALME-3M): < 10%; melting point: 145 to 147 °C
2 | N#Cc1c(-c2ccc(F)cc2)nc(SCc2ccccc2)nc1N1CCN(c2ccccc2)CC1 [4m, 2-(Benzylthio)-4-(4-fluorophenyl)-6-(4-phenylpiperazin-1-yl) pyrimidine-5-carbonitrile] | < 10 | < 10 | < 10 | < 10 | < 10 | 10.6 | < 10 | < 10 | < 10 | < 10 | < 10 | < 10 | 10.7 | < 10 | < 10 | < 10 | < 10 | < 10 | < 10 | 16.2 | inhibition at 10 µM (MDA-MB-231/ATCC): < 10%; inhibition at 10 µM (SR): < 10%; inhibition at 10 µM (HCT-15): 10.8%; inhibition at 10 µM (MCF7): 16.1%; inhibition at 10 µM (SK-MEL-2): < 10%; inhibition at 10 µM (MOLT-4): < 10%; inhibition at 10 µM (MDA-MB-468): < 10%; inhibition at 10 µM (MALME-3M): < 10%; melting point: 165 to 167 °C
3 | N#Cc1c(-c2ccc(F)cc2)nc(SCc2ccc([N+](=O)[O-])cc2)nc1N1CCN(c2ccccc2)CC1 [4o, 4-(4-Fluorophenyl)-2-((4-nitrobenzyl)thio)-6-(4-phenylpiperazin-1-yl)pyrimidine-5-carbonitrile] | < 10 | < 10 | < 10 | 12.3 | < 10 | < 10 | < 10 | < 10 | < 10 | < 10 | < 10 | < 10 | 13.7 | < 10 | < 10 | < 10 | < 10 | < 10 | < 10 | 18.1 | inhibition at 10 µM (HCT-15): < 10%; inhibition at 10 µM (MCF7): 14.8%; inhibition at 10 µM (SK-MEL-2): < 10%; inhibition at 10 µM (MOLT-4): < 10%; inhibition at 10 µM (MDA-MB-468): 10.9%; inhibition at 10 µM (MALME-3M): < 10%; melting point: 165 to 167 °C
4 | N#Cc1c(-c2ccc(F)cc2)nc(SCc2ccc(F)cc2)nc1N1CCN(c2ccccc2)CC1 [4n, 2-((4-Fluorobenzyl)thio)-4-(4-fluorophenyl)-6-(4-phenylpiperazin-1-yl)pyrimidine-5-carbonitrile] | < 10 | < 10 | < 10 | 10.4 | 12.9 | 12.5 | < 10 | < 10 | < 10 | 12.4 | < 10 | < 10 | 16.3 | < 10 | < 10 | < 10 | < 10 | < 10 | 14.1 | 25.8 | inhibition at 10 µM (HCT-15): < 10%; inhibition at 10 µM (MCF7): 24.8%; inhibition at 10 µM (SK-MEL-2): 10.6%; inhibition at 10 µM (MOLT-4): 12.4%; inhibition at 10 µM (MDA-MB-468): < 10%; inhibition at 10 µM (MALME-3M): < 10%; melting point: 180 to 182 °C
